# Values of other authors, collected in paper PMC7060171, “Evaluation of Radiation dosimetry of ^99mTc-HYNIC-PSMA and imaging in prostate cancer” (Scientific Reports, 2020).
# Where two headings read alike, the source gives them in different places.
# [1] = conventional 99mTc-labelled radiopharmaceuticals used in SPECT/CT scans
Structure (SMILES),Effective dose [1],Effective dose
"O=P(O)(O)CP(=O)(O)O (99mTc complex, metal not drawn) [MDP]",5.68E-03 mSv/MBq,–
[C-]#[N+]CC(C)(C)OC.[C-]#[N+]CC(C)(C)OC.[C-]#[N+]CC(C)(C)OC.[C-]#[N+]CC(C)(C)OC.[C-]#[N+]CC(C)(C)OC.[C-]#[N+]CC(C)(C)OC.[Tc] [MIBI],7.83E-03 mSv/MBq,–
O=C(O)CC[C@H](NC(=O)N[C@@H](CCCCNC(=O)c1ccc([18F])nc1)C(=O)O)C(=O)O [^18F-DCFPyL],–,1.39E-02 mSv/MBq

# Next, values leading:
Effective dose [1],Effective dose,Structure (SMILES)
–,2.2E-02 mSv/MBq,O=C(O)CC[C@H](NC(=O)N[C@@H](CCCCNC(=O)[C@H](Cc1ccc2ccccc2c1)NC(=O)c1ccc(CNC(=O)[C@H](CCC(=O)O)NC(=O)[C@H](CCC(=O)O)NC(=O)c2ccc([18F])nc2)cc1)C(=O)O)C(=O)O [^18F-PSMA-1007]
–,2.36E-02 mSv/MBq,O=C([O-])CN(CCN(CC(=O)[O-])Cc1cc(CCC(=O)NCCCCCC(=O)NCCCC[C@H](NC(=O)N[C@@H](CCC(=O)O)C(=O)O)C(=O)O)ccc1[O-])Cc1cc(CCC(=O)O)ccc1[O-].[68Ga+3].[OH3+] [^68Ga-PSMA-11]
–,8.8E-03 mSv/MBq,O=C(O)CC[C@H](NC(=O)N[C@@H](CCC(=O)N[C@@H](CCCCN(Cc1nccn1CC(=O)N(CC(=O)O)CC(=O)O)Cc1nccn1CC(=O)N(CC(=O)O)CC(=O)O)C(=O)O)C(=O)O)C(=O)O.[99Tc+4].[CH-]=O.[CH-]=O.[CH-]=O.[Cl-] [^99mTc-MIP-1404]
